We go through four molecules from US20180149606A1, “XENON BASED DRUG PROTEIN BINDING ASSAY” (priority 2016, published 2018).

For experiment [1], the target named is T1, albumin (Bos taurus, UniProt P02769). Also noted: other: bovine serum albumin whenever possible, close to 25 degrees Celsius; highest. Conditions: bovine serum albumin whenever possible, close to 25 degrees Celsius; highest affinity site; cited from earlier work.
The target of experiment [2] is T1, albumin. Nature of the experiment: Xenon T2 relaxation measurement of drug binding to albumin (Tables 1 and 2). Also noted: T2: unit not given here. The note with it: 10 μM albumin, 9.4 T. The source says:
Hyperpolarized ^129Xe was generated in a rubidium cell hyperpolarizer, and bubbled into the solution.
Hyperpolarized ^129Xe was magnetized in a rubidium cell hyperpolarizer, and bubbled into the solution.
Target sequence in this assay (P02769 25-607): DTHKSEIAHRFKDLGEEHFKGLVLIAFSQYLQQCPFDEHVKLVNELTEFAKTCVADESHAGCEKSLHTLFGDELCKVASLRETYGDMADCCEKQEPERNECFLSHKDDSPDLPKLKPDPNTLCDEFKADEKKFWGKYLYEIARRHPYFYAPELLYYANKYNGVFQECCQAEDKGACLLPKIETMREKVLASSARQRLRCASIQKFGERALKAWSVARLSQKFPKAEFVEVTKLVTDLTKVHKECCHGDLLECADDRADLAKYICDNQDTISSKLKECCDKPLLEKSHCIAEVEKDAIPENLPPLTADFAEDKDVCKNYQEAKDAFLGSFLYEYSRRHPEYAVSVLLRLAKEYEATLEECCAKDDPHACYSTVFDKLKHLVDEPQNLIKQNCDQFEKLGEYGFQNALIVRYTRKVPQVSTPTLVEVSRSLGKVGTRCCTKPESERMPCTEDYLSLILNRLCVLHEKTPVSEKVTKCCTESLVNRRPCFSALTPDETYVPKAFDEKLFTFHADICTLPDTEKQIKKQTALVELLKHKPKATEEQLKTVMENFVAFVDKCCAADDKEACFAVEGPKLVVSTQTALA

For the next experiment, the target named is bovine serum albumin (Bos taurus, UniProt P02769). In words: Drug titration of xenon T2 in 10 μM fatty acid free bovine serum albumin. It counts as binding. Conditions: for effect on the xenon T2 of albumin: titration up to 1 mM drug, 9.4 T, 25 degrees Celsius. The method, then:
The following experiments were performed with fatty acid free bovine serum albumin. It is important to note whether the albumin one uses contains fatty acids both because the fats will alter the binding affinity of a drug and also because they alter the relaxivity of albumin. The drug titrations were performed by preparing a 10 μM solution of bovine serum albumin into which aliquots of high concentration drug solutions were added. Most drugs, as well as all protein solutions, were dissolved in 1×PBS buffer. It is important to keep the pH of the solution constant when studying albumin because that protein has many different pH dependent conformations.
All solutions were made by dissolving the drugs in 1×PBS, with the exception of the tenoxicam solution. The T2 times of solutions containing high concentrations of drugs were measured. […] For the tenoxicam solution, about 400 μL of DMSO was added to a 10 mL solution of 1×PBS.
T2 times were measured using a standard CPMG pulse sequence with 100 ms long echo spacings. All experiments were performed at 9.4 Tesla using hyperpolarized xenon. This hyperpolarized xenon was prepared using a homebuilt spin exchange optical pumping based polarizer. The protein solution was attached to the polarizer's flow system and the pressurized to 60 psi. Xenon was bubbled into the protein solution at a rate of about 0.1 standard liters per minute. The gas mixture used contained 2% xenon, with the rest of the gases being helium and nitrogen. All experiments were performed at 25 degrees Celsius.
All protein solutions required the addition of an antifoaming agent in order to prevent the xenon from forcing the sample out of the NMR tube. […] 1-octanol was used as the antifoaming agent in this experiment. The concentration of 1-octanol used was 5 μL of alcohol per 10 mL of solution.

Sequence of bovine serum albumin (P02769 25-607): as above

Take `Cn1c(=O)c2c(ncn2C)n(C)c1=O` [Caffeine, caffeine]: on albumin [1], the “Highest Binding Affinity log10(Ka)” value is given as 4.3. Moreover, the “Xenon relaxation time, T2” value at albumin [2] (16 μM caffeine) stood at 0.54 ± 0.04 s; on albumin [2] (43 μM caffeine) it was 0.47 ± 0.04 s; on albumin [2] (56 μM caffeine), 0.63 ± 0.04 s; at albumin [2] (100 μM caffeine), 0.69 ± 0.03 s; at albumin [2] (500 μM caffeine) it was 0.51 ± 0.03 s; at albumin [2] (5000 μM caffeine), 0.67 ± 0.04 s. The “Xenon relaxation time, T2” value on albumin [2] (80000 μM caffeine) is given as 1.07 ± 0.03 s.
For `Cc1onc(-c2c(F)cccc2Cl)c1C(=O)N[C@@H]1C(=O)N2[C@@H]1SC(C)(C)[C@@H]2C(=O)O` [Flucloxacillin, flucloxacillin], the “Highest Binding Affinity log10(Ka)” value on albumin [1] is recorded as 4.6. Also, the “effect on the xenon T2 of albumin, repeated titration” value on bovine serum albumin (higher concentrations of drug (beyond 1 mM), 10 μM BSA) is on record as “no effect”. Also, the “effect on the xenon T2 of albumin” value on bovine serum albumin (10 μM BSA) was “much weaker effect”. The T2 on albumin [2] (70 μM flucloxacillin) was 0.91 ± 0.04; on albumin [2] (200 μM flucloxacillin), 0.99 ± 0.04; at albumin [2] (250 μM flucloxacillin), 1.53 ± 0.05; on albumin [2] (450 μM flucloxacillin) it was 0.97 ± 0.03; at albumin [2] (2000 μM flucloxacillin), 0.73 ± 0.04.
Turning to `CCCCCCCC/C=C\CCCCCCCC(=O)[O-].[Na+]` [Sodium Oleate, sodium oleate], at albumin [1], the “Highest Binding Affinity log10(Ka)” value is 8.0. The “increase of xenon T2” value on bovine serum albumin (three times as much sodium oleate as albumin, 10 μM albumin) stood at 3 s. In addition, at bovine serum albumin (10 μM BSA), the “effect on the xenon T2 of albumin” value is “increased”.
On to `CN1C(C(=O)Nc2ccccn2)=C(O)c2sccc2S1(=O)=O` [Tenoxicam, tenoxicam], for which the “Highest Binding Affinity log10(Ka)” value on albumin [1] was 5.4.
